Measurements from PubChem BioAssay AID248 (DTP/NCI, 2004).
“And” between values parts separate entries of the source, which are not always exact repeats. Equal values may be shown once. Inconclusive results and toxic doses are left out. Square brackets hold non-standard residues; d marks the D form. Peptide text beside a SMILES is read from it. ξ: configuration not given here. ξV = CC(C)C(N)C(=O)O

System: L1210 leukemia ip in BDF1 mice, survival T/C
Test: NCI In Vivo Anticancer Drug Screen. Data for tumor model L1210 Leukemia (intraperitoneal) in B6D2F1 (BDF1) mice
Conditions: endpoint: mean survival time, higher = longer survival
Outline: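 Survival endpoint. Drug-treated group vs vehicle group, expressed as T divided by C. Tumor passaged by transplantation.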

[1] = dose: 100.0 mg/kg/injection, schedule: Q01DX009 (ip), vehicle: saline
[2] = dose: 100.0 mg/kg/injection, schedule: Q04DX003 (ip), vehicle: saline
[3] = dose: 200.0 mg/kg/injection, schedule: Q04DX003 (ip), vehicle: saline
[4] = dose: 400.0 mg/kg/injection, schedule: Q04DX003 (ip), vehicle: saline
[5] = dose: 100.0 mg/kg/injection, schedule: Q01DX001 (ip), vehicle: other
[6] = dose: 200.0 mg/kg/injection, schedule: Q01DX001 (ip), vehicle: other
[7] = dose: 400.0 mg/kg/injection, schedule: Q01DX001 (ip), vehicle: other
[8] = dose: 100.0 mg/kg/injection, schedule: Q01DX001 (ip), vehicle: saline
[9] = dose: 200.0 mg/kg/injection, schedule: Q01DX001 (ip), vehicle: saline
[10] = dose: 400.0 mg/kg/injection, schedule: Q01DX001 (ip), vehicle: saline
[11] = dose: 100.0 mg/kg/injection, schedule: Q04DX003 (ip), vehicle: Klucel (hydroxypropylcellulose) (HPC)
[12] = dose: 400.0 mg/kg/injection, schedule: Q04DX003 (ip), vehicle: Klucel (hydroxypropylcellulose) (HPC)

CC(C)C(NC(=O)CN)C(=O)O (stereo unspecified) (H-Gly-[ξV]-OH)
T/C (dose: 50.0 mg/kg/injection, schedule: Q04DX002 (ip), vehicle: saline): 107 % of control
T/C [1]: 98 % of control
T/C (dose: 100.0 mg/kg/injection, schedule: Q04DX002 (ip), vehicle: saline): 110 % of control
T/C [2]: 97 % of control
T/C (dose: 200.0 mg/kg/injection, schedule: Q01DX009 (ip), vehicle: saline): 111 % of control
T/C (dose: 200.0 mg/kg/injection, schedule: Q04DX002 (ip), vehicle: saline): 103 % of control
T/C [3]: 124 % of control
T/C (dose: 400.0 mg/kg/injection, schedule: Q01DX009 (ip), vehicle: saline): 112 % of control
T/C [4]: 97 % of control

CN(C)c1ccccc1C(=O)N/N=C\c1ccc(-c2ccccc2)cc1
T/C (dose: 100.0 mg/kg/injection, schedule: Q04DX002 (ip), vehicle: Klucel (hydroxypropylcellulose) (HPC)): 87 % of control
T/C (dose: 200.0 mg/kg/injection, schedule: Q04DX002 (ip), vehicle: Klucel (hydroxypropylcellulose) (HPC)): 100 % of control
T/C (dose: 400.0 mg/kg/injection, schedule: Q04DX002 (ip), vehicle: Klucel (hydroxypropylcellulose) (HPC)): 117 % of control

CC(=O)Nc1cc(NC(C)=O)cc([N+](=O)[O-])c1
T/C (dose: 50.0 mg/kg/injection, schedule: Q01DX009 (ip), vehicle: saline): 96 % of control
T/C [1]: 105 % of control
T/C [2]: 94 % of control
T/C [3]: 102 % of control
T/C [4]: 100 % of control

COc1cc(C(N)=O)cc(OC)c1OC
T/C (dose: 100.0 mg/kg/injection, schedule: Q01DX001 (ip), vehicle: saline with Tween-80): 96 % of control
T/C (dose: 200.0 mg/kg/injection, schedule: Q01DX001 (ip), vehicle: saline with Tween-80): 98 % of control
T/C (dose: 400.0 mg/kg/injection, schedule: Q01DX001 (ip), vehicle: saline with Tween-80): 98 % of control

CC(C)N(C(=O)Nc1cccc(C(F)(F)F)c1)c1ccccc1
T/C (dose: 100.0 mg/kg/injection, schedule: Q01DX009 (ip), vehicle: Klucel (hydroxypropylcellulose) (HPC)): 106 % of control
T/C (dose: 200.0 mg/kg/injection, schedule: Q01DX009 (ip), vehicle: Klucel (hydroxypropylcellulose) (HPC)): 104 % of control
T/C (dose: 400.0 mg/kg/injection, schedule: Q01DX009 (ip), vehicle: Klucel (hydroxypropylcellulose) (HPC)): 87 % of control

O=C(O)COC(C[N+](=O)[O-])C(Cl)(Cl)Cl (stereo unspecified)
T/C (dose: 100.0 mg/kg/injection, schedule: Q01DX009 (ip), vehicle: saline with Tween-80): 95 % of control
T/C (dose: 200.0 mg/kg/injection, schedule: Q01DX009 (ip), vehicle: saline with Tween-80): 92 % of control
T/C (dose: 400.0 mg/kg/injection, schedule: Q01DX009 (ip), vehicle: saline with Tween-80): 88 % of control

O=[N+]([O-])c1ccc(SC2=NCCCN2)c([N+](=O)[O-])c1
T/C (dose: 12.5 mg/kg/injection, schedule: Q04DX002 (ip), vehicle: Klucel (hydroxypropylcellulose) (HPC)): 106 % of control
T/C (dose: 25.0 mg/kg/injection, schedule: Q04DX002 (ip), vehicle: Klucel (hydroxypropylcellulose) (HPC)): 95 % of control

CNC(=O)c1cc(/C=C/c2c[nH]c3ccccc23)c[n+](C)c1
T/C [5]: 102 % of control
T/C [6]: 100 % of control
T/C [7]: 94 % of control

CC(C)CC(NS(=O)(=O)Cc1ccccc1)C(=O)O (stereo unspecified)
T/C [5]: 105 % of control
T/C [6]: 107 % of control
T/C [7]: 96 % of control

[O-][n+]1ccccc1CCSCCc1cccc[n+]1[O-]
T/C [8]: 101 % of control
T/C [9]: 88 % of control
T/C [10]: 97 % of control

CNc1ccc(C(=O)NC(CCC(=O)O)C(=O)O)cc1[N+](=O)[O-] (stereo unspecified)
T/C [2]: 105 % of control
T/C [3]: 94 % of control
T/C [4]: 103 % of control

CN(C)N=Nc1ccc(C(=N)N)cc1
T/C (dose: 100.0 mg/kg/injection, schedule: Q01DX001 (ip), vehicle: acid diluted with saline): 105 % of control

CCCC(C(CC)CNC(=O)Nc1cccc2ccccc12)N(C)C(=O)Nc1cccc2ccccc12 (stereo unspecified)
T/C (dose: 50.0 mg/kg/injection, schedule: Q01DX001 (ip), vehicle: carboxymethylcellulose (CMC)): 109 % of control
T/C (dose: 100.0 mg/kg/injection, schedule: Q01DX001 (ip), vehicle: carboxymethylcellulose (CMC)): 102 % of control
T/C (dose: 200.0 mg/kg/injection, schedule: Q01DX001 (ip), vehicle: carboxymethylcellulose (CMC)): 103 % of control
T/C (dose: 400.0 mg/kg/injection, schedule: Q01DX001 (ip), vehicle: carboxymethylcellulose (CMC)): 96 % of control

O=C(CC(O)(C(F)(F)F)C(F)(F)F)c1cc(CC(=O)C(O)(C(F)(F)F)C(F)(F)F)cc(CC(=O)C(O)(C(F)(F)F)C(F)(F)F)c1
T/C [11]: 100 % of control
T/C (dose: 200.0 mg/kg/injection, schedule: Q04DX003 (ip), vehicle: Klucel (hydroxypropylcellulose) (HPC)): 92 % of control
T/C [12]: 97 % of control

Cc1ccc2c(c1)CC(C)([CH2][Hg][Cl])O2 (stereo unspecified)
T/C (dose: 3.0 mg/kg/injection, schedule: Q01DX009 (ip), vehicle: Klucel (hydroxypropylcellulose) (HPC)): 91 % of control
T/C (dose: 3.0 mg/kg/injection, schedule: Q04DX003 (ip), vehicle: Klucel (hydroxypropylcellulose) (HPC)): 90 % of control
T/C (dose: 6.0 mg/kg/injection, schedule: Q01DX009 (ip), vehicle: Klucel (hydroxypropylcellulose) (HPC)): 91 % of control
T/C (dose: 6.0 mg/kg/injection, schedule: Q04DX003 (ip), vehicle: Klucel (hydroxypropylcellulose) (HPC)): 87 % of control
T/C (dose: 12.0 mg/kg/injection, schedule: Q04DX003 (ip), vehicle: Klucel (hydroxypropylcellulose) (HPC)): 92 % of control

C1=COC(C2NCCCN2)CC1 (stereo unspecified)
T/C [8]: 102 % of control
T/C [9]: 111 % of control
T/C [10]: 106 % of control

CCCCCCCCCCCC[n+]1ccc(C(N)=O)cc1
T/C (dose: 12.5 mg/kg/injection, schedule: Q01DX001 (ip), vehicle: saline): 91 % of control
T/C (dose: 12.5 mg/kg/injection, schedule: Q04DX003 (ip), vehicle: saline): 96 % of control
T/C (dose: 25.0 mg/kg/injection, schedule: Q01DX001 (ip), vehicle: saline): 100 % of control
T/C (dose: 25.0 mg/kg/injection, schedule: Q04DX003 (ip), vehicle: saline): 87 % of control
T/C (dose: 50.0 mg/kg/injection, schedule: Q01DX001 (ip), vehicle: saline): 86 % of control
T/C (dose: 50.0 mg/kg/injection, schedule: Q04DX003 (ip), vehicle: saline): 94 % of control

CC[n+]1ccccc1-c1ccc(NC(=O)c2ccc(C(=O)Nc3ccc(-c4ccccn4)cc3)cc2)cc1
T/C (dose: 0.75 mg/kg/injection, schedule: Q01DX Z (ip), vehicle: saline): 120 % of control
T/C (dose: 2.6 mg/kg/injection, schedule: Q01DX Z (ip), vehicle: saline): 194 % of control and 213 % of control
T/C (dose: 2.9 mg/kg/injection, schedule: Q01DX001 (ip), vehicle: saline): 116 % of control
T/C (dose: 4.0 mg/kg/injection, schedule: Q01DX Z (ip), vehicle: saline): 176 % of control
T/C (dose: 4.4 mg/kg/injection, schedule: Q01DX001 (ip), vehicle: saline): 124 % of control
T/C (dose: 6.0 mg/kg/injection, schedule: Q01DX Z (ip), vehicle: saline): 170 % of control
T/C (dose: 7.0 mg/kg/injection, schedule: Q01DX Z (oral), vehicle: saline): 103 % of control
T/C (dose: 14.0 mg/kg/injection, schedule: Q01DX Z (ip), vehicle: saline): 100 % of control
T/C (dose: 15.0 mg/kg/injection, schedule: Q01DX Z (oral), vehicle: saline): 100 % of control
T/C (dose: 20.0 mg/kg/injection, schedule: Q01DX001 (ip), vehicle: saline): 164 % of control
T/C (dose: 22.0 mg/kg/injection, schedule: Q01DX Z (ip), vehicle: saline): 102 % of control
T/C (dose: 30.0 mg/kg/injection, schedule: Q01DX Z (oral), vehicle: saline): 102 % of control
T/C (dose: 35.0 mg/kg/injection, schedule: Q01DX Z (ip), vehicle: saline): 88 % of control
T/C (dose: 40.0 mg/kg/injection, schedule: Q01DX001 (ip), vehicle: saline): 153 % of control and 191 % of control

O=C(CNC(=O)C(CSCc1ccccc1)NC(=O)OCc1ccccc1)OCc1ccccc1 (stereo unspecified)
T/C (dose: 25.0 mg/kg/injection, schedule: Q01DX009 (ip), vehicle: gum acacia): 92 % of control
T/C (dose: 50.0 mg/kg/injection, schedule: Q01DX009 (ip), vehicle: gum acacia): 87 % of control
T/C (dose: 100.0 mg/kg/injection, schedule: Q01DX009 (ip), vehicle: gum acacia): 94 % of control
T/C [11]: 89 % of control
T/C [12]: 99 % of control
